Experiment [1] relates to isolated rabbit thoracic aorta preparations. The experiment can be described thus: Assay on vascular tone (vessel relaxation assay). The format is cell-based. The note with it: Oryctolagus cuniculus; aortic rings precontracted with noradrenaline 1 μM, functional endothelium. The method, then:
The ability of the compounds of the invention to induce vasorelaxation in comparison to native angiotensin II receptor blockers (ARBs) was tested in vitro in isolated rabbit thoracic aorta preparations (Wanstall J. C. et al., Br. J. Pharmacol., 134:463-472, 2001). Male New Zealand rabbits were anaesthetized with thiopental-Na (50 mg/kg, iv), sacrificed by exsanguinations and then the thorax was opened and the aorta dissected. Aortic ring preparations (4 mm in length) were set up in physiological salt solution (PSS) at 37° C. in small organ chambers (5 ml). The composition of PSS was (mM): NaCl 130, NaHCO3 14.9, KH2PO4 1.2, MgSO4 1.2, HEPES 10, CaCl2, ascorbic acid […] and glucose 1.1 (95% O2/5% CO2; pH 7.4). Each ring was mounted under 2 g passive tension. Isometric tension was recorded with a Grass transducer (Grass FT03) attached to a BIOPAC MP150 System. Preparations were allowed to equilibrate for 1 h, and then contracted submaximally with noradrenaline (NA, 1 μM) and, when the contraction was stable, acetylcholine (ACh, 10 μM) was added. A relaxant response to ACh indicated the presence of a functional endothelium. […] When a stable precontraction was reached, a cumulative concentration-response curve to either of the vasorelaxant agents was obtained in the presence of a functional endothelium. Each arterial ring was exposed to only one combination of inhibitor and vasorelaxant. Moreover, the effect of the soluble guanylyl cyclase inhibitor ODQ (1-H-(1,2,4)-oxadiazol(4,3-a)quinoxalin-1-one) on vasorelaxation elicited by the compounds was examined preincubating the aortic rings with ODQ (10 μM) for 20 min.
Responses to relaxing agents are expressed as a percentage of residual contraction and plotted against concentration of test compound. EC50 values (where EC50 is the concentration producing 50% of the maximum relaxation to the test compound) were interpolated from these plots. During the experimental period, the plateau obtained with NA was stable without significant spontaneous loss of contraction in the aortic rings.
Furthermore, in experiments performed in the presence of ODQ (10 μM), the vasorelaxant responses to tested compounds were inhibited.

The subject of experiment [2] is conscious spontaneously hypertensive rats (SHRs). The experiment can be described thus: Assay for antihypertensive activity (in vivo). Further details: species or system rat. To be noted: for BP lowering compared to Compound A: SHR, same dose (10 mg/kg) or inferior dose (3 mg/kg). The procedure:
The ability of the compounds of the invention to decrease blood pressure was evaluated in conscious spontaneously hypertensive rats (SHRs). SHRs (250-300 g) received a single oral dose of tested compounds. Systolic blood pressure (SBP) and heart rate were monitored by telemetry for 24 hours after dosing. SBP was evaluated before (baseline) and at different time points (i.e. 2-6, 12, 21-hours) following treatment by oral administration of the compounds. The data were processed both as the absolute value or as a delta between the absolute value and its own baseline.
The Dataquest IV telemetry system (Data Sciences International) was used for measurement of systolic pressure, diastolic pressure, mean arterial pressure, heart rate, and motor activity. The monitoring system consists of a transmitter (radio frequency transducer model TA11PA), receiver panel, consolidation matrix, and personal computer with accompanying software. Before the device was implanted, calibrations were verified to be accurate within ±3 mmHg. Rats were anesthetized with ketamine/xylazine/acepromazine, and the flexible catheter of the transmitter was surgically secured in the abdominal aorta just below the renal arteries. The transmitter was sutured subcutaneously. Rats were housed in individual cages after the operation. Each cage was placed over the receiver panel that was connected to the personal computer for data acquisition. The rats were unrestrained and free to move within their cages. Hemodynamic data were sampled every 2 minutes for 10 seconds.

Experiment [3] relates to Reactive Nitrogen Species (RNS). The experiment can be described thus: Assay for Reactive Nitrogen Species (RNS) (DAN assay). It is filed as in vivo, rat. More on the design: RNS levels: unit not given here. To be noted: for RNS levels: EDTA-treated rat plasma. The text has this: RNS were detected as S-nitrosothiols (RNSOs) in EDTA-treated rat plasma using an HPLC fluorescent assay based on the method of Kostka and Park (Methods Enzymol. 1999, 301, 227-235). The method is based on the detection of fluorescent 2,3-naphthotriazole (NAT) formed in the reaction between acidified 2,3-diaminonaphthalene (DAN) and the nitrosonium moiety of RSNOs released by HgCl2-mediated breakdown of the S—NO bond. The reaction mixture was chromatographed by reversed phase HPLC, and the fluorescent signal of the resolved NAT peak was quantified.
Plasma (20 μL) was first diluted 1:1 in H2O (20 μL) in a black polypropylene untreated microtiter plate. DAN reagent (100 μL per well, 100 μM DAN in 0.1 N HCl, 4 mM HgCl2) was added, and the plate was immediately sealed with an opaque plate mat, vortexed, and incubated in the dark for 10 min. Plates were centrifuged (2000×g, 5 min) and chilled to 4° C. before HPLC analysis. HPLC was carried out on an Agilent 1200 system using a chilled autosampler (4° C.). Samples were chromatographed on a C8 column (Zorbax Eclipse XDB-C8, 4.6×150 mm, 5 μm) with isocratic elution using a mobile phase of 67% MeOH, 0.1% NH4OAc and a flow rate of 2 mL/min. NAT fluorescence was monitored at 450 nm using an excitation wavelength of 360 nm. Calibration curves were prepared using NaNO2 in control plasma. Typical range of quantitation was 0.1 μM to 30 μM NO2.

The mark [4] stands for this setting: 10 mpk single oral dose, 21-24 h.
Where [5] appears, read: 3 mpk single oral dose, 21-24 h.

Turning to `CCCCc1nc(Cl)c(COC(=O)C23CC4CC(CC(O[N+](=O)[O-])(C4)C2)C3)n1Cc1ccc(-c2ccccc2-c2nnn[nH]2)cc1` [Example 10, (2-butyl-4-chloro-1-{[2′-(1H-tetrazol-5-yl)biphenyl-4-yl]methyl}-1H-imidazol-5-yl)methyl 3-(nitrooxy)adamantane-1-carboxylate], in experiment [1], the EC50 turned out to be 5.3 µM.

With `CCCCc1nc(Cl)c(C(=O)OC(C)OC(=O)CCCC(C)O[N+](=O)[O-])n1Cc1ccc(-c2ccccc2-c2nn[nH]n2)cc1` (centres unmarked) [Example 8], the EC50 in experiment [1] worked out at 40 µM. Further, the “Δ SBP in SHR” value is −31 mmHg in experiment [2] (10 mpk single oral dose, 2-6 h); −28 mmHg in experiment [2] (setting [4]); −29 mmHg in experiment [2] (10 mpk single oral dose, 12 h). Further, the “BP lowering compared to Compound A” value in experiment [2] is “extended peak effect and duration of action”.

As to `CCCCc1nc(Cl)c(C(=O)OC(C)OC(=O)OCCCC[C@@H](C)O[N+](=O)[O-])n1Cc1ccc(-c2ccccc2-c2nnn[nH]2)cc1` (stereo partly drawn) [Example 1, 1-[({[(R)-5-(nitrooxy)hexyl]oxy}carbonyl)oxy]ethyl 2-butyl-4-chloro-1-{[2′-(1H-tetrazol-5-yl)biphenyl-4-yl]methyl}-1H-imidazole-5-carboxylate], in experiment [1], the EC50 worked out at 22 µM.

As to `CCCCc1nc(Cl)c(C(=O)OC(C)OC(=O)OCCC(C)O[N+](=O)[O-])n1Cc1ccc(-c2ccccc2-c2nn[nH]n2)cc1` (centres unmarked) [Example 5, 1-[({[3-(nitrooxy)butyl]oxy}carbonyl)oxy]ethyl 2-butyl-4-chloro-1-{[2′-(1H-tetrazol-5-yl)biphenyl-4-yl]methyl}-1H-imidazole-5-carboxylate], the EC50 in experiment [1] was 22 µM.

For `CCCCc1nc(Cl)c(C(=O)OC(C)OC(=O)OCCCC[C@H](C)O[N+](=O)[O-])n1Cc1ccc(-c2ccccc2-c2nn[nH]n2)cc1` (stereo partly drawn) [Example 3, 1-[({[(5S)-5-(nitrooxy)hexyl]oxy}carbonyl)oxy]ethyl 2-butyl-4-chloro-1-{[2′-(1H-tetrazol-5-yl)biphenyl-4-yl]methyl}-1H-imidazole-5-carboxylate], the EC50 in experiment [1] is 39 µM.

For `CCCCc1nc(Cl)c(C(=O)OC(C)OC(=O)OCC[C@@H](C)O[N+](=O)[O-])n1Cc1ccc(-c2ccccc2-c2nn[nH]n2)cc1` (stereo partly drawn) [Example 6, 1-[({[(3R)-3-(nitrooxy)butyl]oxy}carbonyl)oxy]ethyl 2-butyl-4-chloro-1-{[2′-(1H-tetrazol-5-yl)biphenyl-4-yl]methyl}-1H-imidazole-5-carboxylate], in experiment [1], the EC50 stood at 23 µM. Besides, the “Δ SBP in SHR” value in experiment [2] (10 mpk single oral dose, 2-6 h) is listed as −16 mmHg; in experiment [2] (setting [4]), −17 mmHg; in experiment [2] (10 mpk single oral dose, 12 h), −21 mmHg. Also, in experiment [2], the “BP lowering compared to Compound A” value was “extended peak effect and duration of action”.

Regarding `CCCCc1nc(Cl)c(C(=O)OC(C)OC(=O)OCC[C@H](C)O[N+](=O)[O-])n1Cc1ccc(-c2ccccc2-c2nn[nH]n2)cc1` (stereo partly drawn) [Example 7, 1-[({[(3S)-3-(nitrooxy)butyl]oxy}carbonyl)oxy]ethyl 2-butyl-4-chloro-1-{[2′-(1H-tetrazol-5-yl)biphenyl-4-yl]methyl}-1H-imidazole-5-carboxylate], in experiment [1], the 50% effective concentration (EC50) is 26 µM.

Regarding `CCCCc1nc(Cl)c(C(=O)OC(C)OC(=O)OCCCCC(C)O[N+](=O)[O-])n1Cc1ccc(-c2ccccc2-c2nn[nH]n2)cc1` (centres unmarked) [Example 4, 1-[({[5-(nitrooxy)hexyl]oxy}carbonyl)oxy]ethyl 2-butyl-4-chloro-1-{[2′-(1H-tetrazol-5-yl)biphenyl-4-yl]methyl}-1H-imidazole-5-carboxylate], the EC50 in experiment [1] is 27 µM. The RNS levels amounted to 0.9 in experiment [3] (time 0 h); 6.9 in experiment [3] (time 1 h); 6.9 in experiment [3] (time 3 h); 2.4 in experiment [3] (time 6 h); 1.6 in experiment [3] (time 24 h). In experiment [3] (rat plasma), the “RNS levels compared to Compound A” value is given as “improved RNS levels”. Moreover, the “Δ SBP in SHR” value was −10 mmHg in experiment [2] (10 mpk single oral dose, 2-6 h); −30 mmHg in experiment [2] (setting [4]); −30 mmHg in experiment [2] (10 mpk single oral dose, 12 h). Besides, in experiment [2], the “BP lowering compared to Compound A” value is “extended peak effect and duration of action”.

Turning to `CCCCc1nc(Cl)c(C(=O)OCCOCCO[N+](=O)[O-])n1Cc1ccc(-c2ccccc2-c2nn[nH]n2)cc1` [Compound A, reference compound], the RNS levels in experiment [3] (time 0 h) turned out to be 0.4; in experiment [3] (time 1 h) it was 2.8; in experiment [3] (time 3 h), 1.4; in experiment [3] (time 6 h), 0.9; in experiment [3] (time 24 h), 0. Besides, the “Δ SBP in SHR” value in experiment [2] (10 mpk single oral dose, 2-6 h) was −15 mmHg; in experiment [2] (setting [4]), −8 mmHg; in experiment [2] (10 mpk single oral dose, 12 h), −12 mmHg.

For the compound `CCOc1nc2cccc(C(=O)OC(C)OC(=O)CCCC(C)O[N+](=O)[O-])c2n1Cc1ccc(-c2ccccc2-c2nn[nH]n2)cc1` (centres unmarked) [Example 9], in experiment [1], the EC50 was 43 µM. In addition, the “Δ SBP in SHR” value is on record as −43 mmHg in experiment [2] (3 mpk single oral dose, 2-6 h); −50 mmHg in experiment [2] (setting [5]); −49 mmHg in experiment [2] (3 mpk single oral dose, 12 h). In addition, the “BP lowering compared to Compound A” value in experiment [2] is “extended peak effect and duration of action”.

For `CCOc1nc2cccc(C(=O)OC(C)(C)OC(=O)OCCCCC(C)O[N+](=O)[O-])c2n1Cc1ccc(-c2ccccc2-c2nnn[nH]2)cc1` (centres unmarked) [Example 2], the EC50 in experiment [1] amounted to 31 µM. Besides, the “Δ SBP in SHR” value was −30 mmHg in experiment [2] (3 mpk single oral dose, 2-6 h); −36 mmHg in experiment [2] (setting [5]); −34 mmHg in experiment [2] (3 mpk single oral dose, 12 h). The “BP lowering compared to Compound A” value in experiment [2] is “extended peak effect and duration of action”.

The EC50 is the concentration giving half of the maximal effect.

The values are drawn from US20100311800A1, “ANGIOTENSIN II RECEPTOR ANTAGONISTS” (priority 2008, published 2010).
